These results are taken from publication PMC5733001, “Biochemical and Thermodynamical Characterization of Glucose Oxidase, Invertase, and Alkaline Phosphatase Secreted by Antarctic Yeasts” (Frontiers in Molecular Biosciences, 2017).

What is called Km is the substrate concentration at which the rate is half of its maximum. Broadly, the Vmax is the top rate of the reaction or transport when substrate is in excess.

Data set [1] concerns T1, GOD (glucose oxidase) from G. gastrica.
T1 construct: native extracellular enzyme purified from yeast culture supernatant (ammonium sulfate, Superdex 75); Mr 91,000 by SDS-PAGE
As to the kind of experiment: Michaelis-Menten initial rates; peroxidase / o-dianisidine assay, […] nm. In kind it is biochemical, Goffeauzyma gastrica. As to conditions: 64 °C, 2 M CaCl2; glucose 0.006-11 mM; O2 as co-substrate.

Data set [2] deals with T2, ALP (alkaline phosphatase) from Dioszegia sp.
T2 construct: native extracellular enzyme purified from yeast culture supernatant (ammonium sulfate, anion exchange); Mr 39,000 by SDS-PAGE
As to the kind of experiment: Michaelis-Menten initial rates; alkaline phosphatase assay kit, […] nm. The data set is classed as biochemical. As to conditions: 47 °C, pH 9.0; pNPP 0.001-2 mM.

Substrate in the data set “purified protein”: OC[C@H]1O[C@@](CO)(O[C@H]2O[C@H](CO)[C@@H](O)[C@H](O)[C@H]2O)[C@@H](O)[C@@H]1O
As to the kind of experiment: purified protein. In kind it is biochemical, Hansenula anomala. As to conditions: 60 °C, pH 5.0, sucrose 1-100 mM.

In the case of `OC[C@H]1OC(O)[C@H](O)[C@@H](O)[C@@H]1O` (stereo partly shown) [glucose], the Km in data set [1] worked out at 1600 µM. Consider `O=[N+]([O-])c1ccc(OP(=O)(O)O)cc1` [p-nitrophenylphosphate], for which the Km in data set [2] was determined as 590 µM.

B1: Inv (invertase) from W. anomalus (Hansenula anomala) (protein)
chain: STEYLRPQIHLTPDQGWMNDPNGMFYDRKDKLWHVYFQHNPDKKSIWATPVTWGHSTSKDLLTWDYHGNALEPENDDEGIFSGSVVVDRNNTSGFFNDSTDPEQRIVAIYTNNAQLQTQEIAYSLDKGYSFIKYDQNPVINVNSSQQRDPKVLWHDESNQWIMVVAKTQEFKVQIYGSPDLKKWDLKSNFTSNGYLGFQYECPGLFKLPIENPLNDTVTSKWVLLLAINPGSPLGGSINEYFIGDFDGTTFHPDDGATRFMDIGKDFYAFQSFDNTEPEDGALGLAWASNWQYANTVPTENWRSSMSLVRNYTLKYVDVNPENYGLTLIQKPVYDTKETRLNETLKTLETINEYEVNDLKLDKSSFVATDFNTERNATGVFEFDLKFTQTDLKMGYSNMTTQFGLYIHSQTVKGSQETLQLVFDTLSTTWYIDRTTQHSFQRNSPVFTERISTYVEKIDTTDQGNVYTLYGVVDRNILELYFNDGSIAMTNTFFFREGKIPTSFEVVCDSEKSFITIDELSVRELARK
notes: native extracellular enzyme purified from yeast culture supernatant (ammonium sulfate, Superdex 200); Mr 101,000 by SDS-PAGE
For B1, in “purified protein”, the Km came out at 78600 µM and the Vmax was determined as 99500 µM/min.
